Assay results as given in patent US20130131008A1, “LIPOPHILIC MONOPHOSPHORYLATED DERIVATIVES AND NANOPARTICLES” (BOARD OF REGENTS, THE UNIVERSITY OF TEXAS SYSTEM, priority 2011, published 2013).
Like-named read-outs stand apart in the source and are kept apart here.

Columns and labels:
[1] = tested on: TC-1-GR tumors; details: mice with pre-established TC-1-GR tumors; cited from earlier work
[2] = tested on: TC-1 cells; experiment: In vitro cytotoxicity assay (MTT), 48 h; format: cell-based; details: Mus musculus, TC-1, 48 h incubation
Excerpt: (§1) Human leukemia cell line CCRF-CEM (CCL-119), human pancreatic cancer cell lines PANC-1 (CRL-1469), MIA PaCa-2 (CRL-1420), and BxPC-3 (CRL-1687), human breast adenocarcinoma cell line MCF-7 (HTB-22), and mouse lung cancer cell line TC-1 (CRL-2785) were from the American Type Culture Collection (Rockville, Md.). CCRF-CEM-AraC-8C cells (hENT1 deficient) and CCRF-CEM/dCK^−/− cells (dCK deficient) were kindly provided by Dr. Buddy Ullmann (Oregon Health & Science University, Portland, Oreg.) and Dr. Margaret Black (Washington State University, Pullman, Wash.), respectively. L1210 wt and L1210 10K were kindly supplied by Dr. Lars Petter Jordheim (Université Claude Bernard Lyon I, Lyon, France). TC-1-GR cells were previously developed in our lab. CCRF-CEM, CCRF-CEM-AraC-8C, CCRF-CEM/dCK^−/−, L1210 wt, L1210 10K, TC-1, and TC-1-GR cells were cultured in RPMI 1640 medium. MCF-7 and PANC-1 cells were cultured in Dulbecco's modified Eagle medium (DMEM), MIA PaCa-2 cells were cultured in DMEM medium with 2.5% horse serum. All media were supplemented with 10% fetal bovine serum (FBS), 100 U/mL of penicillin, and 100 μg/mL of streptomycin (all from Invitrogen, Carlsbad, Calif.).
(§2) Cells (5,000/well) were seeded in 96-well plates. After overnight incubation, they were treated with various concentrations of gemcitabine HCl, gemcitabine derivatives, or gemcitabine derivatives in nanoparticles at 37° C., 5% CO2. TC-1 and TC-1-GR cells were incubated for 48 h. CCRF-CEM, CCRF-CEM-AraC-8C, CCRF-CEM/dCK^−/−, L1210 wt, L1210 10K, and MCF-7 cells were incubated for 72 h, and MIA PaCa-2 and PANC-1 for 96 h. Gemcitabine HCl was dissolved in phosphate-buffered saline (PBS), and gemcitabine derivatives were dissolved in dimethyl sulfoxide (DMSO). […] The number of viable cells after the incubation was determined using an MTT assay. Briefly, 3-(4,5-dimethylthiazol-2-yl)-2,5-diphenyltetrazolium bromide (20 μl, 5 mg/mL) was added in each well and incubated for 3 h. Formazan crystals were solubilized with acidified isopropanol (150 μl) (for CCRF-CEM, CCRF-CEM-AraC-8C, CCRF-CEM/dCK^−/−, L1210 wt, and L1210 10K cells) or DMSO (150 μl) (for TC-1, TC-1-GR, MCF-7, PANC-1, and MIA PaCa-2). Absorbance was measured using a BioTek Synergy™ HT Multi-Mode Microplate Reader (BioTek Instruments, Winooski, Vt.) at 570 nm and 630 nm. The fraction of affected (dead) cells (Fa) and the fraction of unaffected (live) cells (Fu) at every dose were calculated, and the Log(Fa/Fu) values were plotted against the Log(concentration of gemcitabine). IC50 was the dose at Log(Fa/Fu)=0, See e.g., Chou, T. C. & Talalay, P., 1984, Adv. Enzyme Regul. 22:27-55. The experiment was repeated at least three times.

[3] = tested on: TC-1-GR cells; experiment: cells; format: cell-based
Excerpt: as §1, §2

[4] = tested on: L1210 wt cells; experiment: In vitro cytotoxicity assay (MTT), 72 h; format: cell-based, murine; details: Mus musculus, 72 h incubation
Excerpt: as §1, with “MCF-7 and PANC-1 cells were cultured in Dulbecco's modified Eagle medium (DMEM), MIA PaCa-2 cells were cultured in DMEM medium with 2.5% horse serum. All media were supplemented with 10% fetal bovine serum (FBS), 100 U/mL of penicillin, and 100 μg/mL of streptomycin (all from Invitrogen, Carlsbad, Calif.).” left out
Cells (5,000/well) were seeded in 96-well plates. […] The number of viable cells after the incubation was determined using an MTT assay. […] Absorbance was measured using a BioTek Synergy™ HT Multi-Mode Microplate Reader (BioTek Instruments, Winooski, Vt.) at 570 nm and 630 nm. The fraction of affected (dead) cells (Fa) and the fraction of unaffected (live) cells (Fu) at every dose were calculated, and the Log(Fa/Fu) values were plotted against the Log(concentration of gemcitabine). […]

[5] = tested on: CCRF-CEM cells; experiment: In vitro cytotoxicity assay (MTT), 72 h; format: cell-based, human; details: Homo sapiens, CCRF-CEM, 72 h incubation
Excerpt: as §1, §2

[6] = tested on: B16-F10 melanoma tumor; experiment: Antitumor activity of GemC18/PEG-C18 micelles in mice with B16-F10 tumors (Example 20); format: in vivo, mouse; details: C57BL/6 mice, tail vein injection, 0.283 mg GemHCl or molar equivalent GemC18; 2 doses (micelles 3 doses), 3 days apart
Protocol: The in vivo antitumor activity of GemC18/PEG-C18 micelles was evaluated in C57BL/6 mice with subcutaneously inoculated B16-F10 cells (5.0×10^5/mouse) in the right flank. Treatments were given 6 days after tumor cell inoculation by tail vein injection with normal saline, Gemcitabine HCl (GemHCl) solution, GemC18 solution, blank PEG-C18 micelles, or GemC18/PEG-C18 micelles. The dose was 0.283 mg of GemHCl or molar equivalent amount of GemC18. All groups received a second dose three days after the first dose, while the GemC18/PEG-C18 micelle group also received a third dose 3 days after the second dose. Tumor sizes were measured with calipers in two perpendicular diameters every day and reported as tumor volume (V=½ [a×b^2], a=longer diameter, b=shorter diameter).

[7] = tested on: L1210 10K cells; experiment: In vitro cytotoxicity assay (MTT), 72 h, dCK deficient cells; format: cell-based, murine
Excerpt: as §1
Cells (5,000/well) were seeded in 96-well plates. After overnight incubation, they were treated with various concentrations of gemcitabine HCl, gemcitabine derivatives, or gemcitabine derivatives in nanoparticles at 37° C., 5% CO2. TC-1 and TC-1-GR cells were incubated for 48 h. CCRF-CEM, CCRF-CEM-AraC-8C, CCRF-CEM/dCK^−/−, L1210 wt, L1210 10K, and MCF-7 cells were incubated for 72 h, and MIA PaCa-2 and PANC-1 for 96 h. […] The number of viable cells after the incubation was determined using an MTT assay. […] Absorbance was measured using a BioTek Synergy™ HT Multi-Mode Microplate Reader (BioTek Instruments, Winooski, Vt.) at 570 nm and 630 nm. The fraction of affected (dead) cells (Fa) and the fraction of unaffected (live) cells (Fu) at every dose were calculated, and the Log(Fa/Fu) values were plotted against the Log(concentration of gemcitabine). […]

[8] = tested on: PANC-1 cells; experiment: Trypan blue exclusion assay of cell viability; format: cell-based, human; details: 400 μM
Protocol: Cell viability was determined using a trypan blue exclusion assay. Data shown are mean±S.D. (S.D.: standard deviation) (n=3). Experiment was repeated twice.

[9] = tested on: MIA PaCa-2 cells; details: literature value; read-out: IC50 in MIA PaCa-2 cells reported by Duxbury et al.; cited from earlier work
[10] = tested on: MIA PaCa-2 cells; experiment: In vitro cytotoxicity assay (MTT), 96 h; format: cell-based, human; details: Homo sapiens, MIA PaCa-2, 96 h incubation
Excerpt: as §1, §2

[11] = tested on: CCRF-CEM-AraC-8C cells; experiment: In vitro cytotoxicity assay (MTT), 72 h, hENT1 deficient cells; format: cell-based, human; details: for Ratio of IC50 in CCRF-CEM-AraC-8C to that in CCRF-CEM: HCl
Excerpt: as §1, §2

[12] = IC50 of gemcitabine HCl divided by that of the derivatives or derivatives in nanoparticles

Cl.Nc1ccn([C@@H]2O[C@H](CO)[C@@H](O)C2(F)F)c(=O)n1 [Gemcitabine HCl, 2′,2′-difluorodeoxycytidine HCl, reference compound]
TC-1-GR tumor growth in mice (previous study) [1]: did not show any significant anti-tumor activity
IC50 [2]: 14.7 ± 2.8 nM
Ratio of IC50 in TC-1-GR to that in TC-1 [3]: 2,497
Ratio of IC50 values in TC-1-GR cells [3, 12]: 1
IC50 ([3]; Mus musculus, MTT, 48 h incubation, RRM1 over-expressing): 36700 ± 5100 nM
IC50 [4]: 1.3 ± 0.3 nM
IC50 [5]: 2.9 ± 1.8 nM
B16-F10 tumor growth (tumor volume) [6]: not significant different from that in mice that received normal saline
Ratio of IC50 in L1210 10K to that in L1210 wt [7]: 17,046
Ratio of IC50 values in L1210 10K cells ([7]; IC50 of gemcitabine HCl divided by that of the nanoparticles): 1
IC50 ([7]; Mus musculus, L1210, MTT, 72 h incubation, dCK deficient): 22200 ± 3700 nM
Time to kill 50% of PANC-1 cells [8]: 116 h
IC50 [9]: 40 nM
IC50 [10]: 49.7 ± 17.7 nM
Ratio of IC50 in CCRF-CEM-AraC-8C to that in CCRF-CEM [11]: 333
IC50 ([11]; Homo sapiens, MTT, 72 h incubation, hENT1 deficient): 998.8 ± 9.4 nM
Ratio of IC50 values in CEM-AraC-8C cells [11, 12]: 1
Ratio of IC50 in CCRF-CEM-AraC-8C to that in CCRF-CEM ([11]; listed as gemcitabine HCl): 344
